Molecules are shown by their SMILES.

Test [1] in a line: Loss of righting reflex in mice (inhaled agent). In kind it is in vivo. The following applies: mice. On the procedure:
HFCP caused loss of righting reflex (a surrogate measure of unconsciousness) in 4 healthy ND4 mice at 1.0±0.2 (mean±SD) percent of 1 atmosphere. […] After 2 hours of anesthesia, mice were awake after about 1 minute of discontinuing HFCP administration. […] Despite a lack of NMDA receptor effects, 1,1,2,2,3,3,4-heptafluorocyclopentane is able to produce the desired pharmacologic endpoints of unconsciousness and immobility that appears similar to desirable effects produced by conventional agents.

Test [2] deals with 3-transmembrane (TM3) and 4-transmembrane (TM4) receptors. The following applies: grouped by calculated molar solubility in unbuffered water at 25° C.; cited from earlier work.
For test [3] the following is noted: aqueous phase; Tadpole; cited from earlier work.
In test [4] the target is T1, GABAA (α1β2γ2s) receptors (UniProt P14867+P18508+P63138).
T1 construct: expressed in transfected cells; host or cells: Xenopus laevis oocytes (intranuclear plasmid injection, α1:β2:γ2 = 1:1:10)
T1 sequence (P14867 28-456): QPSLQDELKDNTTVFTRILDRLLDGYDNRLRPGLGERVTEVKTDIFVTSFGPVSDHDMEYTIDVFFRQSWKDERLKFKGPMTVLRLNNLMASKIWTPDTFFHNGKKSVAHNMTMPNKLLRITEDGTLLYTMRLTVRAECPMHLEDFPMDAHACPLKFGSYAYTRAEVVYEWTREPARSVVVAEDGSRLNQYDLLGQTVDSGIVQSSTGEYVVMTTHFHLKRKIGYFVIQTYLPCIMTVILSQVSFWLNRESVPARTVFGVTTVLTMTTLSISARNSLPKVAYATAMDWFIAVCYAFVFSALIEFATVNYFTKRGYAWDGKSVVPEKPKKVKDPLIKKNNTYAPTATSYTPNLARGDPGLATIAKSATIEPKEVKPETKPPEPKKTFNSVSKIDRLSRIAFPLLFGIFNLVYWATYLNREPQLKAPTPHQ
T1 sequence (P63138 25-474 limits assumed): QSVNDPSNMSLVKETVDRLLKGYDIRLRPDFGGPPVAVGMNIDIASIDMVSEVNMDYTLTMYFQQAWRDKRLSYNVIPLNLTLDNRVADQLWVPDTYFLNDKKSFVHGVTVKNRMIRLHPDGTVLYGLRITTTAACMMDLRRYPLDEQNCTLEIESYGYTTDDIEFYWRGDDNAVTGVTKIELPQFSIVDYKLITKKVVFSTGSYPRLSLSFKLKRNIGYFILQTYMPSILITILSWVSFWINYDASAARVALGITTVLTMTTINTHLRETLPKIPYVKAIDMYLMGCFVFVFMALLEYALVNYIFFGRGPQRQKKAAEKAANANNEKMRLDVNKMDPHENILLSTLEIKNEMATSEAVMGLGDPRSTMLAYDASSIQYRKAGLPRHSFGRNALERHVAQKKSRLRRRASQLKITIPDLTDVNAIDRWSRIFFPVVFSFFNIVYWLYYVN
T1 sequence (P18508 39-466): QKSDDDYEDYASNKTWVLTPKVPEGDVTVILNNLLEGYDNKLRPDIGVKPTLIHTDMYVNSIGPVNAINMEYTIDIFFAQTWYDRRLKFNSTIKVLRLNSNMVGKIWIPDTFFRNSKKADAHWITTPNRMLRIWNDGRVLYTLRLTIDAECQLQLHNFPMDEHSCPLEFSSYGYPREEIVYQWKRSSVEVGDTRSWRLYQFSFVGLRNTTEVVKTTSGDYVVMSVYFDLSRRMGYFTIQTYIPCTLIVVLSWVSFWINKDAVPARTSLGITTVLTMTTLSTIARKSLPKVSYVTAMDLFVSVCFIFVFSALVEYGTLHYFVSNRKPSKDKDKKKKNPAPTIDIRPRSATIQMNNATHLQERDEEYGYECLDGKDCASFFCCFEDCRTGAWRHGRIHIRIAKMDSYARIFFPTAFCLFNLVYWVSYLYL
Put plainly: GABAA receptor two-electrode voltage clamp in oocytes at saturated drug concentration. It is filed as cell-based, human α1, rat β2 and γ2s. Particulars: for GABAA % Direct Effect: drug response without receptor agonist; for GABAA % Direct Effect / GABAA % Agonist Effect: percent of control agonist peak, mean ±SEM, 5-6 oocytes, saturated drug; for GABAA % Agonist Effect: drug with γ-aminobutyric acid; for GABAA Drug Response: drug+agonist versus control agonist peak. An excerpt: (§1) GABAA (α1β2γ2s) or NMDA (NR1/NR2A) receptors were expressed in oocytes and studied using standard two-electrode voltage clamp techniques. Hydrocarbons from 14 different organic functional groups were studied at saturated concentrations, and compounds within each group differed only by the carbon number at the ω-position or within a saturated ring. An effect on GABAA or NMDA receptors was defined as a 10% or greater reversible current change from baseline that was statistically different from zero.
(§2) An ovary from tricaine-anesthetized Xenopus laevis frogs was surgically removed using a protocol approved by the Institutional Animal Care and Use Committee at the University of California, Davis. Following manual disruption of the ovarian lobule septae, the ovary was incubated in 0.2% Type I collagenase (Worthington Biochemical, Lakewood, N.J.) to defolliculate oocytes which were washed and stored in fresh and filtered modified Barth's solution composed of 88 mM NaCl, 1 mM KCl, 2.4 mM NaHCO3, 20 mM HEPES, 0.82 mM MgSO4, 0.33 mM Ca(NO3)2, 0.41 mM CaCl2, 5 mM sodium pyruvate, gentamycin, penicillin, streptomycin, and corrected to pH=7.4. All salts and antibiotics were A.C.S. grade (Fisher Scientific, Pittsburgh, Pa.).
(§3) Clones used were provided as a gift from Dr. R. A. Harris (University of Texas, Austin) and were sequenced and compared to references in the National Center for Biotechnology Information database to confirm the identity of each gene. GABAA receptors were expressed using clones for the human GABAA α1 and the rat GABAA β2 and γ2s subunits in pCIS-II vectors. […] In separate oocytes, glutamate receptors were expressed using rat NMDA NR1 clones in a pCDNA3 vector and rat NMDA NR2A clones in a Bluescript vector. RNA encoding each subunit was prepared using a commercial transcription kit (T7 mMessage mMachine, Ambion, Austin, Tex.) was mixed in a 1:1 ratio, and 1-10 ng of total RNA was injected into oocytes and studied 1-2 days later.
Oocytes were studied in a 250 μL linear-flow perfusion chamber with solutions administered by syringe pump at 1.5 ml/min with gastight glass syringes and Teflon tubing. Oocyte GABAA currents were studied using standard two-electrode voltage clamping techniques at a holding potential of […] using a 250 μL channel linear-flow perfusion chamber with solutions administered by syringe pump at 1.5 mL/min.
After FR perfusion for 5 min, oocytes were exposed to 30 sec FR-GABA followed by another 5 min FR washout; this was repeated until stable GABAA-elicited peaks were obtained. Next, FR containing a saturated solution of the study drug (Table 2)—or for gaseous study compounds a vapor pressure equal to 90% of barometric pressure with balance oxygen—was used to perfuse the oocyte chamber for 2 min followed by perfusion with a FR-GABA solution containing the identical drug concentration for 30 sec.
(§4) Modulating drug responses were calculated as the percent of the control (baseline) peak as follows: 100·ID/IB, where ID and IB were the peak currents measured during agonist+drug and agonist baseline perfusions, respectively. When present, direct receptor activation by a drug was similarly calculated as a percent of the agonist response. […] A lack of receptor response (cut-off) was defined as a<10% change from baseline current that was statistically indistinguishable from zero using a two-tailed Student t-test.

For test [5], the target named is T2, NMDA (NR1/NR2A) receptors (Rattus norvegicus, UniProt P35439+Q00959).
T2 construct: expressed in transfected cells; host or cells: Xenopus laevis oocytes (RNA injection, 1:1)
T2 sequence (Q00959 23-1464, other chains not shown): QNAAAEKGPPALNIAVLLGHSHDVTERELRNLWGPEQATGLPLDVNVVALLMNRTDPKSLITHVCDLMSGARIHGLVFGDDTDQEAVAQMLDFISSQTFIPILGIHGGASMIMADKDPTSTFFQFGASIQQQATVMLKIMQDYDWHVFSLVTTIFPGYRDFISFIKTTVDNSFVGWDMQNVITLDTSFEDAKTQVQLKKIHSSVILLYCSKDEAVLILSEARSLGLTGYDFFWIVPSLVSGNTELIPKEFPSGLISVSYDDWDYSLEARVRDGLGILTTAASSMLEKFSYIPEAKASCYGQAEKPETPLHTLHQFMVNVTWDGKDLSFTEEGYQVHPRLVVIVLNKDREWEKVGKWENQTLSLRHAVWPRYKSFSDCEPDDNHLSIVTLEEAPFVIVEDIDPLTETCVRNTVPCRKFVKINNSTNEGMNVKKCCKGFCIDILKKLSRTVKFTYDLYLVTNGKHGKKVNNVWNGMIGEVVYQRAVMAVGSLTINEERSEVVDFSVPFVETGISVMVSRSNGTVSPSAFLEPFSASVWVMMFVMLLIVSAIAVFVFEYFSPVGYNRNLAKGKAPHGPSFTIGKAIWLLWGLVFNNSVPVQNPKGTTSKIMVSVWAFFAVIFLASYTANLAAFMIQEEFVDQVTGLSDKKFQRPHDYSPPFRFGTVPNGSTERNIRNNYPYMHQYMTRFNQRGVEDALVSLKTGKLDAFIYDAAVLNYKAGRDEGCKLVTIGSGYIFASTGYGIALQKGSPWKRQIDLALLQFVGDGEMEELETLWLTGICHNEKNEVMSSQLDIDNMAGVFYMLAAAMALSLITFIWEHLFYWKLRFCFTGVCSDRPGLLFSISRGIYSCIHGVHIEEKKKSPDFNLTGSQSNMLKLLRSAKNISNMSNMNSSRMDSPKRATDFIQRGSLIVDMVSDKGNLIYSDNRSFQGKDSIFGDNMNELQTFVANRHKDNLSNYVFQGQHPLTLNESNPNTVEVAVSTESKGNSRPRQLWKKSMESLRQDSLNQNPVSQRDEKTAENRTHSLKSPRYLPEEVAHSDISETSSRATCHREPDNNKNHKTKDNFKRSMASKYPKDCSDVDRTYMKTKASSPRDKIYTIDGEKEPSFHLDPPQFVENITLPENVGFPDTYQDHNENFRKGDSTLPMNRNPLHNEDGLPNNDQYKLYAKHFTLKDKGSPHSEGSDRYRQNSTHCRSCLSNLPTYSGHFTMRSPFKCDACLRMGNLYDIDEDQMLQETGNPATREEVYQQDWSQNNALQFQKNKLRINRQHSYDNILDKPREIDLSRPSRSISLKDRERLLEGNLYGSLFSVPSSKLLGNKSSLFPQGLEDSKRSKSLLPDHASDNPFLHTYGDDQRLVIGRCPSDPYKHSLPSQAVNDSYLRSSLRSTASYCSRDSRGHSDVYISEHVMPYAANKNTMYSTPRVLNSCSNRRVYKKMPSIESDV
Put plainly: NMDA receptor two-electrode voltage clamp in oocytes at saturated drug concentration. In kind it is cell-based. The following applies: for NMDA % Direct Effect: drug response without receptor agonist; for NMDA % Direct Effect / NMDA % Agonist Effect: percent of control agonist peak, mean ±SEM, 5-6 oocytes, saturated drug; for NMDA % Agonist Effect: drug with glutamate and glycine; for NMDA Drug Response: drug+agonist versus control agonist peak.
Text: as §1, §2, §3
Briefly, baseline perfusion solutions were the same as for GABAA with the substitution of equimolar BaCl2 for calcium salts and the addition of 0.1 mM EGTA; this constituted barium frog Ringer's solution (BaFR). Agonist solutions for NMDA studies also contained 0.1 mM glutamate (E) and 0.01 mM glycine (G) to constitute a BaFREG solution.
The syringe pump and perfusion chamber apparatus as well as the clamp holding potential and baseline-agonist exposure protocols were identical to that described for the GABAA studies. The same test compounds, concentrations, and preparative methods were used in NMDA voltage clamp studies as in the GABAA voltage clamp studies (Table 2).
as §4
On the technique in general: Two-electrode voltage clamp holds a large cell at a set potential and records current.

Setting [6] is: saturating aqueous concentration.

In the case of `FC1(F)OC(F)(F)C(F)(F)C(F)(F)C1(F)F` [Perfluorotetrahydropyran], in test [1], the “concentration causing loss of righting reflex” value is recorded as 1-10%.

For the compound `CCCCCCCCC` [nonane], the “ion channel modulation, TM3 versus TM4 receptors (FIG. 2)” value in test [2] was “modulate 4-transmembrane receptors (TM4) or neither receptor type”.

For the compound `CCCCCCCCCCCO` [undecanol], the “ion channel modulation, TM3 versus TM4 receptors (FIG. 2)” value in test [2] is recorded as “modulate 4-transmembrane receptors (TM4) or neither receptor type”.

A word on the EC50: it is the concentration at which the effect is half-maximal. As for `COC(F)(F)C(Cl)Cl` [Methoxyflurane], the “ion channel modulation, TM3 versus TM4 receptors (FIG. 2)” value in test [2] was “modulate both 3-transmembrane (TM3) and TM4 receptors”. For the same compound, the EC50 in test [3] was 210 µM.

`C1CC1` [cyclopropane]: the “ion channel modulation, TM3 versus TM4 receptors (FIG. 2)” value in test [2] is “modulate both 3-transmembrane (TM3) and TM4 receptors”.

Regarding `Cc1cccc([C@H](C)c2cnc[nH]2)c1C` [Dexmedetomidine], the EC50 in test [3] is 7 µM.

For the compound `FC(F)OC(F)C(F)(F)F` (stereo not drawn) [desflurane], the “ion channel modulation, TM3 versus TM4 receptors (FIG. 2)” value in test [2] is “modulate both 3-transmembrane (TM3) and TM4 receptors”.

Turning to `[N-]=[N+]=O` [nitrous oxide], the “ion channel modulation, TM3 versus TM4 receptors (FIG. 2)” value in test [2] was “modulate both 3-transmembrane (TM3) and TM4 receptors”.

`CCOC(=O)c1cncn1[C@H](C)c1ccccc1` [Etomidate]: the “ion channel modulation, TM3 versus TM4 receptors (FIG. 2)” value in test [2] is listed as “modulate 4-transmembrane receptors (TM4) or neither receptor type”. The 50% effective concentration (EC50) in test [3] is 3 µM.

In the case of `FCOC(C(F)(F)F)C(F)(F)F` [sevoflurane], in test [2], the “ion channel modulation, TM3 versus TM4 receptors (FIG. 2)” value was “modulate both 3-transmembrane (TM3) and TM4 receptors”.

Consider `CCOCC` [Diethyl ether], for which the “ion channel modulation, TM3 versus TM4 receptors (FIG. 2)” value in test [2] is “modulate both 3-transmembrane (TM3) and TM4 receptors”. For the same compound, the EC50 in test [3] is 25000 µM.

With `FC1(F)C(F)(F)C(F)(Cl)C1(F)Cl` (stereo not drawn) [1,2-dichlorohexafluorocyclobutane], the “ion channel modulation, TM3 versus TM4 receptors (FIG. 2)” value in test [2] is “modulate 4-transmembrane receptors (TM4) or neither receptor type”.

With `FC(F)(F)C(Cl)Br` (stereo not drawn) [Halothane], the “ion channel modulation, TM3 versus TM4 receptors (FIG. 2)” value in test [2] is “modulate both 3-transmembrane (TM3) and TM4 receptors”. Besides, the EC50 in test [3] was 230 µM.

Take `Cc1ncc2n1-c1ccc(Cl)cc1C(c1ccccc1F)=NC2` [midazolam]: the “ion channel modulation, TM3 versus TM4 receptors (FIG. 2)” value in test [2] is given as “modulate 4-transmembrane receptors (TM4) or neither receptor type”.

`FC(F)OC(F)(F)C(F)Cl` (stereo not drawn) [enflurane]: the “ion channel modulation, TM3 versus TM4 receptors (FIG. 2)” value in test [2] is “modulate both 3-transmembrane (TM3) and TM4 receptors”.

`CN1C(=O)CN=C(c2ccccc2)c2cc(Cl)ccc21` [diazepam]: the “ion channel modulation, TM3 versus TM4 receptors (FIG. 2)” value in test [2] was “modulate 4-transmembrane receptors (TM4) or neither receptor type”.

As to `FC1C(F)(F)C(F)(F)OC1(F)C(F)(F)F` (stereo not drawn) [2,2,3,3,4,5-hexafluorotetrahydro-5-(trifluoromethyl)-furan], the “concentration causing loss of righting reflex” value in test [1] is reported as 1-10%.

Regarding `CCO` [ethanol], the “ion channel modulation, TM3 versus TM4 receptors (FIG. 2)” value in test [2] is “modulate both 3-transmembrane (TM3) and TM4 receptors”.

`C[C@]12N[C@H](Cc3ccccc31)c1ccccc12` [dizocilpine]: the “ion channel modulation, TM3 versus TM4 receptors (FIG. 2)” value in test [2] is “modulate both 3-transmembrane (TM3) and TM4 receptors”.

Consider `CCCCCCCCCCCO` [1-undecanol], for which, in test [4], the “GABAA % Direct Effect” value is listed as “none”, the “GABAA % Agonist Effect” value stood at 181 ± 13% and the “GABAA Drug Response” value is reported as “+ (potentiation (+) for drug+agonist responses greater than the control agonist peak)”. In addition, in test [5], the “NMDA % Direct Effect” value is reported as “none”, the “NMDA % Agonist Effect” value is given as 101 ± 2% and the “NMDA Drug Response” value is listed as 0 (no response (0) for drug+agonist responses that differ by <10% from the control agonist peak).

`CCCCCCCCCCC=O` [undecanal]: in test [4], the “GABAA % Direct Effect” value is reported as “none”, the “GABAA % Agonist Effect” value is listed as 299 ± 29% and the “GABAA Drug Response” value is “+ (potentiation (+) for drug+agonist responses greater than the control agonist peak)”. Besides, in test [5], the “NMDA % Direct Effect” value was “none”, the “NMDA % Agonist Effect” value was 97 ± 8% and the “NMDA Drug Response” value is recorded as 0 (no response (0) for drug+agonist responses that differ by <10% from the control agonist peak).

As for `C=CCCC` [1-pentene], in test [4], the “GABAA % Direct Effect” value is given as 2 ± 3%, the “GABAA % Agonist Effect” value came to 453 ± 38% and the “GABAA Drug Response” value is listed as “+ (potentiation (+) for drug+agonist responses greater than the control agonist peak)”. In test [5], the “NMDA % Direct Effect” value was “none” and the “NMDA % Agonist Effect” value came to 69 ± 1%.

For `C1CCCCC1` [cyclohexane], in test [4], the “GABAA % Direct Effect” value was “none”, the “GABAA % Agonist Effect” value is on record as 421 ± 17% and the “GABAA Drug Response” value was “+ (potentiation (+) for drug+agonist responses greater than the control agonist peak)”. Also, in test [5], the “NMDA % Direct Effect” value is recorded as “none”, the “NMDA % Agonist Effect” value worked out at 101 ± 2% and the “NMDA Drug Response” value was 0 (no response (0) for drug+agonist responses that differ by <10% from the control agonist peak).

With `OCC(F)(F)C(F)(F)C(F)(F)C(F)(C(F)(F)F)C(F)(F)F` [1-Hexanol, 2,2,3,3,4,4,5,6,6,6-decafluoro-5-(trifluoromethyl)-], the “GABAA receptor modulation (in words)” value in test [4] (setting [6]) was “GABA-A receptor agonist”. For the same compound, in test [5] (setting [6]), the “NMDA receptor modulation (in words)” value is listed as “weak NMDA receptor antagonist”.

`ClC(Cl)Cl` [Chloroform]: the EC50 in test [3] is 1300 µM.

Regarding `CCCCCCCCC=O` [nonanal], in test [4], the “GABAA % Direct Effect” value is “none”, the “GABAA % Agonist Effect” value came to 219 ± 29% and the “GABAA Drug Response” value is listed as “+ (potentiation (+) for drug+agonist responses greater than the control agonist peak)”. In test [5], the “NMDA % Direct Effect” value was “none”, the “NMDA % Agonist Effect” value came to 104 ± 2% and the “NMDA Drug Response” value was 0 (no response (0) for drug+agonist responses that differ by <10% from the control agonist peak).

In the case of `FC(F)OC(Cl)C(F)(F)F` (stereo not drawn) [Isoflurane], the “ion channel modulation, TM3 versus TM4 receptors (FIG. 2)” value in test [2] was “modulate both 3-transmembrane (TM3) and TM4 receptors”. In addition, the EC50 in test [3] was 290 µM.
